# Reference: patent US20250051293A1, “NOVEL OXADIAZOLE DERIVATIVE AND USE THEREOF” (CELROS BIOTECH, priority 2021, published 2025)
# Tests used:
# [1] = system: MPTP-induced Parkinson's disease; assay: MPTP-induced Parkinson's disease mouse model; assay type: in vivo, mice; conditions: for MPTP-induced increase in number of microglia (Iba1+ cells) in the substantia nigra and striatum / density of Th+ fibers in the striatum / number of dopaminergic neurons (Th+ cells) in the substantia nigra: 30 mg/kg oral for 8 days; for density of Th+ fibers in the striatum / number of dopaminergic neurons (Th+ cells) in the substantia nigra / pole test T-total / pole test T-turn: compared to the vehicle-treated group; for pole test T-total / pole test T-turn: Day 6 after MPTP, 30 mg/kg oral
# Method: To evaluate the effect of compounds of Example 1 and Example 2 on MPTP (1-methyl-4-phenyl-1,2,3,6-tetrahydropyridine hydrochloride; Sigma-Aldrich)-induced Parkinson's disease, C57BL/6 male mice (9 weeks old) were randomly divided into three groups. • saline+vehicle • MPTP+vehicle • MPTP+compound of Example 1 or […] (30 mg/kg)
# To induce Parkinson's disease, mice were intraperitoneally injected with MPTP (25 mg/kg) four times at 2-hour intervals, while control mice were treated with an equal volume of saline. The compounds of Example 1 or Example 2 were dissolved in a solvent consisting of 10% DMAC (dimethyl acetamide, Sigma-Aldrich), 10% Tween 80 (Sigma-Aldrich) and 80% saline (JW Pharmaceuticals). Mice were orally administered with 30 mg/kg of the compound of Example 1 or Example 2 starting 1 day prior to MPTP injection for 8 days.
# Seven days after MPTP administration (one day after the last administration of the compound of Example 1 or Example 2), experimental animals were sacrificed by perfusion with saline (JW Pharmaceuticals) followed by 10% formalin (Sigma-Aldrich), and brain tissues were obtained. The tissues were cut into 30 μm thick slices using a cryostat (Leica) and stored in an anti-freezing solution (30% sucrose, 1% polyvinylpyrrolidone, and 30% ethylene glycol in 1×PBS) at −20° C.
# Anti-tyrosine hydroxylase antibody (1:2000-4000, ABCAOM) was used to detect dopaminergic neurons and anti-Iba1 antibody (1:1000, Wako) was used to measure microglia. Biotinylated goat anti-rabbit antibody (VECTOR, BA-1000) was used as a secondary antibody and ABC solution (VECTOR, BA-1000) was used. The immunoreactive sections were then incubated with 3-3′ diaminobenzidine (DAB, Dako) to change the color to brown.
# For the substantia nigra, six coronal sections, one every 150 μm, between −2.80 mm and −3.80 mm bregma were used, and for the striatum, three coronal sections between +0.98 mm and +0.50 mm bregma were collected. The coronal sections were stained with anti-tyrosine hydroxylase antibody or anti-Iba1 antibody and then analyzed by counting the number of stained cells or using ImagePro plus 7.0 software.
# The mice were moved to a home cage where they were placed head up in the top of a 60 cm vertical pole with a diameter of 1 cm, and were then allowed to descend themselves and stay for about 15 seconds in the home cage.
# The above procedure was repeated three times, all of which were videotaped, and the time for the mouse's head to turn completely downward (T-turn) and total time to descend to the floor (T-total) were analyzed.
# human NOX4 = biological target: T1, human NOX4 (Homo sapiens, UniProt Q9NPH5); assay: Lucigenin chemiluminescence assay, drosophila membranes expressing hNOX4; assay type: biochemical; conditions: average of three repeats
# T1 construct: made in house; host or cells: transgenic Drosophila (Da-GAL4 driven UAS-hNOX4, dDuox RNAi background); membranes from homogenized flies
# T1 sequence (Q9NPH5 1-578): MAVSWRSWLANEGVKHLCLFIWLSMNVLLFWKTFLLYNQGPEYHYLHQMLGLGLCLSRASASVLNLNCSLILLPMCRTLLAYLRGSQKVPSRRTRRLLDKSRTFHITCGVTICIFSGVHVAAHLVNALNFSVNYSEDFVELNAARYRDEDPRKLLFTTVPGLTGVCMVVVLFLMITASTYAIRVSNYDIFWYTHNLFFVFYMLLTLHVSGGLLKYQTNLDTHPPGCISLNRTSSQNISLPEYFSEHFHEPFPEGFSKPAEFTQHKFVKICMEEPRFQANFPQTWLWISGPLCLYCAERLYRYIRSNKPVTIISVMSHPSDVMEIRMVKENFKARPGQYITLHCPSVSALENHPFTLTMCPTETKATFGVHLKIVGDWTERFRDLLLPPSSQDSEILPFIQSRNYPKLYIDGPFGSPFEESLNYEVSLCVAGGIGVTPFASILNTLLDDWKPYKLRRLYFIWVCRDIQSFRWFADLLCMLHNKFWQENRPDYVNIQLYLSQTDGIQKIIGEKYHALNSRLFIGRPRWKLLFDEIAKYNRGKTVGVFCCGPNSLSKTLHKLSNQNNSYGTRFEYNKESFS
# Method: Human NOX isozymes were provided from transgenic flies expressing human NOX isozymes from the daughterless (Da)-GAL4 promoter. The genotype of each fly line is shown below. • human NOX2:UAS-hNOX2/UAS-dDuox-RNAi; Da-GAL4/+ • human NOX4:UAS-hNOX4/UAS-dDuox-RNAi; Da-GAL4/+
# Transgenic flies were homogenized in PBS containing protease inhibitors (aprotinin, leupeptin) to obtain drosophila membranes of each NOX isozyme. The membranes were incubated with the compounds (100 μM, 10 μM, 1 μM, 0.1 μM, 0.01 μM, 0.001 μM, and 0 μM) for 10 minutes in a shaker. Then, to the membranes, a mixture of 500 μM NADPH (R-nicotinamide adenine dinucleotide 2′-phosphate reduced tetrasodium salt hydrate; Sigma-Aldrich) and 400 μM lucigenin (N,N′-dimethyl-9,9-biacridinium dinitrate; Sigma-Aldrich) in 1× HEPES (4-(2-hydroxyethyl)-1-piperazineethanesulfonic acid) buffer was added. Lucigenin chemiluminescence was detected at 1-minute intervals for 10 minutes using a multimode microplate reader (SpectraMax iD3, Molecular Devices). IC50 values were calculated with Graph-Pad Prism 5 (GraphPad Software).
# The lucigenin chemiluminescence assay was performed with drosophila membranes expressing hNOX1, hNOX2, and hNOX4. The assay was repeated three times and the IC50 values were averaged.
# [2] = Metabolic stability in human liver microsomes; assay type: in vitro ADME; conditions: human liver microsomes 0.5 mg/ml, 1 μM, 30 minutes, 37° C., NADPH
# Method: The stability of a drug may be predicted by using liver microsomes to determine the extent to which the drug is metabolized in the liver. […] Thus, a metabolic stability verification experiment was performed on the oxadiazole derivatives according to The present disclosure.
# Specifically, sample treatment human liver microsomes (0.5 mg/ml), 0.1 M phosphate buffer (pH 7.4), and test compound at a concentration of 1 μM were added, and the mixture was pre-incubated at 37° C. for 5 minutes, followed by addition of NADPH Regeneration system solution and incubation at 37° C. for 30 minutes. An acetonitrile solution containing an internal standard (chlorpropamide) was then added to terminate the reaction, followed by centrifugation for 5 minutes (14,000 rpm, 4° C.). Then, the supernatant was injected into the LC-MS/MS system to analyze the substrate drug to evaluate the metabolic stability of the two compounds.
# The HPLC column was an Acquity UPLC BEH Amide column (2.1×100 mm, 1.7 μm particle size; Waters, Ireland). The mobile phases were distilled water containing 0.1% formic acid (A) and acetonitrile containing 0.1% formic acid (B). Data analysis was performed using Analyst software (version 1.6.3).
Structure (SMILES),MPTP-induced increase in number of microglia (Iba1+ cells) in the substantia nigra and striatum [1],density of Th+ fibers in the striatum [1],number of dopaminergic neurons (Th+ cells) in the substantia nigra [1],pole test T-total [1],pole test T-turn [1],IC50 (human NOX4),"Human (% ) remaining, microsomal stability [2]"
"O=C(Nc1nnc(-c2ccccc2)o1)c1ccc(F)c(C(F)(F)F)c1 [Example 2, 4-fluoro-N-(5-phenyl-1,3,4-oxadiazol-2-yl)-3-(trifluoromethyl)benzamide]",effectively reduced,higher,higher,significant decrease,decrease,440 nM,>100%
"O=C(Nc1nnc(-c2cccc(Cl)c2)o1)c1cc(F)cc(C(F)(F)F)c1 [Example 1, N-(5-(3-chlorophenyl)-1,3,4-oxadiazol-2-yl)-3-fluoro-5-(trifluoromethyl)benzamide]",effectively reduced,higher,higher,significant decrease,decrease,160 nM,81.7%
